The results in this text go back to patent USRE34480E, “Naphthalocyanine compounds” (Yamamoto Kagaku Gosei Co., Ltd., priority 1983, dated 1993).

Like-named read-outs stand apart in the source and are kept apart here.

One series can be described thus: Solubility in toluene. It is filed as physicochemical. Conditions: for Solubility in Toluene: 1 g in 5 ml toluene, ultrasonic shaking 50° C. 10 min, then room temperature 30 min, filtered; for residue (solubility measurement in toluene): residue behind the printed solubility. The method, then:
In a 20 ml test tube were placed 1 g of a naphthalocyanine compound and 5 ml of toluene. After the tube was tightly stoppered, the content was subjected to ultrasonic shaking at 50° C. for 10 min. Then, the tube was allowed to stand at room temperature for 30 min. and the content was filtered. The filtrate was concentrated to dryness. The solubility of the naphthalocyanine in toluene was calculated using the following equation. [formula] R1, R2, and R3 and R4 of naphthalocyanine compounds of the present invention can bond to 6 to 7 positions of all naphthalene nuclei of naphthalocyanine. Each of these groups can be a mixed group.

Series [1] is described as follows: Near infrared absorption spectrum in toluene (largest absorption peak, absorptivity coefficient). It is filed as physicochemical. The source says: It is to be noted that the naphthalocyanine compounds according to the present invention are not restricted to the compounds shown in Table 2.
Near infrared absorption spectrum for toluene solution: […]

As for “Indium tetra-tert, sec-mixed amylnaphthalocyanine [Example 4]”, the “Solubility in Toluene” value in “Solubility in toluene” was determined as 7%. For the same substance, in series [1], the “Absorptivity coefficient (log ε)” value stood at 5.09 and the “Wavelength at largest absorption peak” value was 805 nm.

Turning to “copper tetra-tert-amylnaphthalocyanine [Example 2]”, the “Solubility in Toluene” value in “Solubility in toluene” was 7%. Moreover, the “Wavelength at largest absorption peak” value in series [1] is recorded as 771 nm. Besides, the “Absorptivity coefficient (log ε)” value in series [1] (listed as tert-amyl Cu) worked out at 5.24.

“tetra-6-tert-butylvanadylnaphthalocyanine [reference compound]”: the “Solubility in Toluene” value in “Solubility in toluene” worked out at 2%. For the same substance, the “Solubility in organic solvents (in words)” value in “Solubility in toluene” (organic solvents, compared with tert-butyl analogue or in general) was “much lower solubility in organic solvents”.

Turning to “tetra-tert, sec-mixed amylvanadylnaphthalocyanine [Example 3]”, in the series “Solubility in toluene”, the “Solubility in Toluene” value turned out to be 7% and the “residue (solubility measurement in toluene)” value is 0.6 g. In addition, in series [1], the “Absorptivity coefficient (log ε)” value came to 5.32 and the “Wavelength at largest absorption peak” value turned out to be 809 nm.

With “tetra-tert-amylvanadylnaphthalocyanine [Example 1]”, in “Solubility in toluene”, the “Solubility in Toluene” value amounted to 6% and the “residue (solubility measurement in toluene)” value was 0.6 g. Moreover, in series [1], the “Absorptivity coefficient (log ε)” value is listed as 5.37 and the “Wavelength at largest absorption peak” value is 808 nm.

Turning to “tetra-tert-heptylvanadylnaphthalocyanine [Example 5]”, the “Solubility in Toluene” value in the series “Solubility in toluene” came to 11%. In series [1], the “Absorptivity coefficient (log ε)” value was 5.27 and the “Wavelength at largest absorption peak” value came out at 809 nm.
